Assay results: US12404241B2 (Celgene Corporation, priority 2018, dated 2025)

Target: T1, AR (Homo sapiens, UniProt P10275)
T1 construct: endogenous in cells; host or cells: VCaP cells
T1 sequence (P10275 1-920): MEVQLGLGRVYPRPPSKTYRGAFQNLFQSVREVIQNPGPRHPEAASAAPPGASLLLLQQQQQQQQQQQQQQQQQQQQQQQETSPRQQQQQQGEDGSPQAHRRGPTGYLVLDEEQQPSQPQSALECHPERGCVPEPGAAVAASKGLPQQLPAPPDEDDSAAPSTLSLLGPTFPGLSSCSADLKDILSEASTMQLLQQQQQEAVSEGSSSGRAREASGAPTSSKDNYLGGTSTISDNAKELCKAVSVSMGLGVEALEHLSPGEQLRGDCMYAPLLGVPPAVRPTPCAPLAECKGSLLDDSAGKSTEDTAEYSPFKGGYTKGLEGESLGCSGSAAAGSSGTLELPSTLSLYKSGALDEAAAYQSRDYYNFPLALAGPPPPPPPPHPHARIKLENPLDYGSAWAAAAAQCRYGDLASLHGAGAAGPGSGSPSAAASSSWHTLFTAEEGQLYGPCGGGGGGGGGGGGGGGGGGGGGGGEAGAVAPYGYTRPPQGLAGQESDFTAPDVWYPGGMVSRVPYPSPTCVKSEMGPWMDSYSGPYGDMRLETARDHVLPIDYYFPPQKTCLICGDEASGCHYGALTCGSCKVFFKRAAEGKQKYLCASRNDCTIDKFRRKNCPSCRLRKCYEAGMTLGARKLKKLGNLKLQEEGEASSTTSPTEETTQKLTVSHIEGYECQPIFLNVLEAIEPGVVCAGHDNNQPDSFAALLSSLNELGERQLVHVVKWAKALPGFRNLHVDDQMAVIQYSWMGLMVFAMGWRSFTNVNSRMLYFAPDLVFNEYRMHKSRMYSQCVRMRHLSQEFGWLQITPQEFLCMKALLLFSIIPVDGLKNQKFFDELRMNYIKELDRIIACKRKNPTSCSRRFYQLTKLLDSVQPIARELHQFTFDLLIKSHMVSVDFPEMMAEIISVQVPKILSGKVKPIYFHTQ
Assay: VCAP AR Degradation Assay
Type: cell-based
Settings: for Y (AR degradation efficiency, % of DMSO control): class symbols *; for DC50: class symbols A-C, read-out: DC50
Protocol: VCAP AR Degradation Assay. Test compounds were pre-dispensed into a Corning CellBind 96-well clear bottom plate (Cat #3300) using an acoustic dispenser to make a 10-point concentration series at 1:3 dilution for each compound. The final top concentration of each compound was 5 μM. DMSO at a final concentration of 0.1% was used as a control. VCaP cells cultured in DMEM with 8% fetal bovine serum (FBS) were seeded at 50K cells per well in a 200 μL volume into the compound plate and incubated at 37° C. in a CO2 incubator for 24 h. The medium was carefully removed from the cells and the plate was placed on ice. One hundred μL of ice-cold 1x cell lysis buffer from Cell Signaling Technologies (Cat #9803) was added to each well of the cells and the plate was incubated at 4° C. on a shaker for 1 h. Fifteen μL of cell lysate was used for AR ELISA detection using a PathScan Total Sandwich AR ELISA kit (Cell Signaling Technology, Cat #12580). AR levels in compound-treated wells were normalized to that of DMSO control and expressed as percent of control (PoC) (y). A Four Parameter Logistic Model (Sigmoidal Dose-Response Model) was used to determine the compound's DC50, and EC50, using the following equation:
[formula] • A=YMin (lowest AR level normalized to DMSO control in response to compound treatment, as determined by curve fit) • B=YMax (maximum AR level as determined by curve fit) • C=EC50 • D=Hill Slope • x=compound concentration • EC50=the concentration of compound when y=(YMax−YMin)/2 • DC50=the concentration of the compound when y=50% of DMSO control (50% AR degradation) • y=AR protein level normalized to DMSO control
The lowest measured AR level normalized to DMSO control in response to compound treatment, termed Y value, was used to characterize the compound-mediated AR degradation efficiency.

Structure (SMILES)	Y (AR degradation efficiency, % of DMSO control)	DC50 [nM]
CCc1cc(N2C(=S)N(c3ccc(C#N)c(C(F)(F)F)c3)C(=O)C2(C)C)ccc1OCCN1CCN(CC(=O)Nc2cccc(NC3CCC(=O)NC3=O)c2)C[C@@H]1CO (stereo partly drawn) [Example 48]	* (0<Y<=25%)	< 100
CCc1cc(N2C(=S)N(c3ccc(C#N)c(C(F)(F)F)c3)C(=O)C2(C)C)ccc1OCCN1CCN(CC(=O)Nc2cccc(NC3CCC(=O)NC3=O)c2)C[C@H]1CO (stereo partly drawn) [Example 49]	** (25%<Y<=35%)	< 100
CCc1cc(N2C(=S)N(c3ccc(C#N)c(C(F)(F)F)c3)C(=O)C2(C)C)ccc1OCCN1CCN(CC(=O)Nc2cccc(NC3CCC(=O)NC3=O)c2)[C@H](CO)C1 (stereo partly drawn) [Example 50]	*** (35%<Y<50%)	500 to 1000
CCc1cc(N2C(=S)N(c3ccc(C#N)c(C(F)(F)F)c3)C(=O)C2(C)C)ccc1OCCN1CCN(CC(=O)Nc2cccc(NC3CCC(=O)NC3=O)c2)[C@@H](CO)C1 (stereo partly drawn) [Example 51]	*** (35%<Y<50%)	100 to 500
CC(C)c1cc(N2C(=S)N(c3cnc(C#N)c(C(F)(F)F)c3)C(=O)C2(C)C)ccc1OCCN1CCN(CC(=O)Nc2cccc(NC3CCC(=O)NC3=O)c2)CC1 (stereo not drawn) [Example 53, 2-(4-(2-(4-(3-(6-cyano-5-(trifluoromethyl)pyridin-3-yl)-5,5-dimethyl-4-oxo-2-thioxoimidazolidin-1-yl)-2-isopropylphenoxy)ethyl)piperazin-1-yl)-N-(3-(2,6-dioxopiperidin-3-ylamino)phenyl)acetamide]	* (0<Y<=25%)	< 100
CCc1cc(N2C(=S)N(c3cnc(C#N)c(C(F)(F)F)c3)C(=O)C23CCC3)ccc1OCCN1CCN(CC(=O)Nc2cccc(NC3CCC(=O)NC3=O)c2)CC1 (stereo not drawn) [Example 56, 2-(4-(2-(4-(7-(6-cyano-5-(trifluoromethyl)pyridin-3-yl)-8-oxo-6-thioxo-5,7-diazaspiro[3.4]octan-5-yl)-2-ethylphenoxy)ethyl)piperazin-1-yl)-N-(3-(2,6-dioxopiperidin-3-ylamino)phenyl)acetamide]	* (0<Y<=25%)	< 100
CCc1cc(N2C(=S)N(c3ccc(C#N)c(C(F)(F)F)c3)C(=O)C2(C)C)ccc1OCCN1CCN([C@@H](C)C(=O)Nc2cccc(NC3CCC(=O)NC3=O)c2)CC1 (stereo partly drawn) [Example 57, (2S)-2-(4-(2-(4-(3-(4-cyano-3-(trifluoromethyl)phenyl)-5,5-dimethyl-4-oxo-2-thioxoimidazolidin-1-yl)-2-ethylphenoxy)ethyl)piperazin-1-yl)-N-(3-(2,6-dioxopiperidin-3-ylamino)phenyl)propanamide]	* (0<Y<=25%)	< 100
CCc1cc(N2C(=S)N(c3ccc(C#N)c(C(F)(F)F)c3)C(=O)C2(C)C)ccc1OCCN1CCN([C@H](C)C(=O)Nc2cccc(NC3CCC(=O)NC3=O)c2)CC1 (stereo partly drawn) [Example 58, (2R)-2-(4-(2-(4-(3-(4-cyano-3-(trifluoromethyl)phenyl)-5,5-dimethyl-4-oxo-2-thioxoimidazolidin-1-yl)-2-ethylphenoxy)ethyl)piperazin-1-yl)-N-(3-(2,6-dioxopiperidin-3-ylamino)phenyl)propanamide]	* (0<Y<=25%)	< 100
CC(F)(F)c1cc(N2C(=S)N(c3ccc(C#N)c(C(F)(F)F)c3)C(=O)C2(C)C)ccc1OCCN1CCN(CC(=O)Nc2cccc(NC3CCC(=O)NC3=O)c2)CC1 (stereo not drawn) [Example 59, 2-(4-(2-(4-(3-(4-cyano-3-(trifluoromethyl)phenyl)-5,5-dimethyl-4-oxo-2-thioxoimidazolidin-1-yl)-2-(1,1-difluoroethyl)phenoxy)ethyl)piperazin-1-yl)-N-(3-(2,6-dioxopiperidin-3-ylamino)phenyl)acetamide]	* (0<Y<=25%)	< 100
